From paper PMC12406198, “Decadentate Acyclic Chelators for Lanthanum Radiopharmaceuticals” (Journal of Medicinal Chemistry, 2025)
Read-outs that look alike come from different tables or passages of the source. Values belong to the molecule of their own block, whether it stands above or below them.

Experiments:
[1] = Ligand protonation constants by pH-potentiometric titration; format: physicochemical; details: sum of literature protonation constants of related ligands
[2] = cited from earlier work
[3] = Stability constants of La^3+ complexes by pH potentiometry; format: physicochemical; details: for pLa: −log[La^3+]free for [L] = 10 μM and [La^3+] = 1 μM at pH 7.4 and 25 °C; for log K LaL ^La: 1:2 L:La^3+ complex; for log K LaL ^La / log K La2L ^OH / log K La2LOH ^OH / log K LaL / pH at which dissociation of the La^3+ complex occurs (speciation diagrams) / log K LaL ^OH: I = 0.15 M NaCl, 25 °C; for pH at which dissociation of the La^3+ complex occurs (speciation diagrams): cLa3+ = cLig = 10^–3 M; for log K LaL ^OH: hydroxo-complex; for amount of La^3+ not complexed at the beginning of the titration: pH 1.7
Experimental: The stability constants of the La^3+ complexes were determined using pH potentiometry (I = 0.15 NaCl). A significant amount of the metal ion is not complexed by the TPADAC^4– ligand at the beginning of the titration at pH 1.7 (∼20%), which allows for stability constant determination using potentiometry. In the case of TPAEN^4– the amount of free La^3+ was small (∼4%), but the stability constants could be determined by fitting the titration data using both 1:1 and 1:2 (TPAEN^4–:La^3+) stoichiometries (Figure S1, Supporting Information). The TPADAC^4– ligand also forms complexes with 1:1 and 1:2 stoichiometries (Figure S2, Supporting Information).
The thermodynamic stability of the complexes at physiologically relevant pH was assessed by calculating pLa values, defined as −log[La^3+]free for [L] = 10 μM and [La^3+] = 1 μM at pH 7.4 and 25 °C following the recommendation of Raymond. This is a result of the high stability constants (log K LaL) that characterize the formation of these complexes, as well as the relatively low basicity of these ligands. Indeed, cyclohexyl derivatives TPADAC^4– and CHXOCTAPA^4– display considerably higher basicity than the ethyl analogues, as indicated by the Σ log K i ^H (i = 1–5) values shown in Table . Similarly, DTPA and DO3A derivatives are characterized by rather high basicities, which results in relatively low pLa values.
(§1) The pH-potentiometric titrations were carried out with a Methrohm 785 DMP titrator using a Metrohm-6.0233.100 combined electrode. The titrated solutions (5.000 mL) were thermostated at 25 °C and stirred and kept under inert gas atmosphere (N2) to avoid the effect of CO2. The pH-calibration of the electrode was performed using KH-phthalate (pH = 4.005) and borax (pH = 9.177) buffers. The concentrations of the ligand stock solutions were determined by pH-potentiometric titration. The protonation constants of the TPAEN^4– (in the pH range of 2.19–12.00 a total of 213 data pairs by titrating a 2.72 mM a ligand solution) and TPADAC^4– (in the pH range of 1.88–11.85 a total of 208 data pairs by titrating a 2.32 mM ligand solution), the stability and protonation constants of the complexes formed with La^3+ and the formation constants of their dinuclear complexes were determined by pH-potentiometric titration. The metal-to-ligand concentration ratios were 1:1 and 2:1. For the 1:1 ratio a total of 240 data pairs were recorded for a H4TPAEN concentration of 2.29 mM in the pH range of 1.77–11.86, while a total of 222 data pairs were collected in the pH range 1.72–11.85 for a 2.72 mM solution of H4TPADAC. For the 2:1 ratio we collected 259 data pairs for a 2.31 mM solution of H4TPAEN in the pH range of 1.73–11.82, and 259 data pairs for a 2.71 mM concentration of H4TPADAC in the pH range of 1.70–11.85. The calculation of [H^+] from the measured pH values was performed with the use of the method proposed by Irving et al. by titrating a 0.01 M HCl solution (I = 0.15 M NaCl) with a standardized NaOH solution. The differences between the measured and calculated pH values were used to obtain the [H^+] concentrations from the pH-data obtained in the titrations. The ionic product of water was determined from the same experiment in the pH range 11.25–11.85. The protonation and stability constants were calculated from the titration data with the PSEQUAD program. The quality of the fits was assessed with the fitting parameter (FP) calculated by PSEQUAD, which is defined as 2 FP=∑i=1n(Vi,calc−Vi,meas)^2/n−k

[4] = literature value, cited from earlier work
[5] = Ligand protonation constants by pH-potentiometric titration; format: physicochemical; details: I = 0.15 M NaCl, 25 °C; for Σ log K i ^H (i = 1–5): sum of the constants measured here
Experimental: Ligand protonation constants were determined in 0.15 M NaCl using potentiometric titrations (Figures S1–S2, Supporting Information). The results are compared with those reported previously for OCTAPA^4– and CHXOCTAPA^4– in Table , while the speciation diagrams are shown in Figure S3 (Supporting Information). The first two protonation constants of these ligands, characterized by log K 1 ^H and log K 2 ^H, correspond to the protonation of amine groups, while the remaining protonation constants are ascribed to the carboxylate groups of picolinate and acetate moieties. ,
as §1

[6] = Dissociation kinetics: transmetalation of La^3+ complexes with Cu^2+ as scavenger (UV-vis); format: physicochemical; details: for k 3 ^Cu: Cu^2+-assisted pathway; for k 3 ^Cu / k 6 ^Cu / k 2 / K Cu / k 1: 25 °C, 0.15 M NaCl; for k obs for [Cu^2+] = 1 nM / k obs for [Cu^2+] = 1 μM: calculated at pH 7.4; for k 6 ^Cu: dinuclear hydroxo-complex pathway; for k 2: diprotonated pathway; for K Cu: formation of ternary LaLCu complex; for k 1: proton-assisted dissociation of La^3+ complex
Description: The inertness of metal complexes for radiopharmaceutical applications is important to ensure that the radioisotope is not released in vivo off-target. Furthermore, the detailed study of the dissociation mechanism of the complexes provides useful information for ligand design. Thus, we performed a detailed investigation of the dissociation kinetics of the [La(TPAEN)]^− and [La(TPADAC)]^− complexes using Cu^2+ as a scavenger. The reactions were studied spectrophotometrically in the approximate proton concentration range 1.1 × 10^–5–1.6 × 10^–2 M, which corresponds to a pH range of about 1.8–5.0. A large excess of Cu^2+ was used to ensure pseudo-first order conditions.
The latter may proceed through the formation of mono- or diprotonated intermediates, with associated rate constants k 1 and k 2, respectively. […] Thus, we analyzed the kinetic data using the following expression: 1 kobs=k0+k1[H^+]+k2[H^+]^2+k3[Cu^2+]+k6[Cu^2+]Kw/[H^+]/1+KCu[Cu^2+] Here, k 1, k 2, k 3 ^Cu and k 6 ^Cu are the rate constants defined above, k 0 is the rate constant characterizing the spontaneous dissociation mechanism, K w is the ionic product of water (fixed at pK w = 13.72) and K Cu is the equilibrium constant for the formation of the ternary complex (K Cu= [LaLCu]/[Cu^2+][LaL]).
The rates of the metal exchange reactions of the [La(TPAEN)]^− and [La(TPADAC)]^− complexes with Cu(II) were studied by using UV–vis spectrophotometry following the formation of corresponding Cu(II) complexes. The metal exchange reactions of [La(TPAEN)]^− and [La(TPADAC)]^− were examined by conventional spectrophotometric methods tracking the changes in absorption at 305 nm within the pH range of 1.84 to 4.94 (for [La(TPAEN)]^−). The concentration of the complexes was 0.252 mM, while the Cu(II) ion was applied in high excess (12 to 42 times) to ensure pseudo-first-order conditions. The temperature was maintained at 25 °C, and the ionic strength of the solutions was kept constant at 0.15 M NaCl. Dimethylpiperazine (DMP, 50 mM) buffer was used to maintain the pH constant (log K 2 ^H = 4.18) in the pH range of 3.40 to 4.89 (for [La(TPADAC)]^−). At lower pH, the data were supplemented by following the reactions in the range pH of 2.57 to 3.23 using chloroacetic acid (log K 2 ^H = 2.87) at the same concentration. The pseudo-first-order rate constants (k obs) were calculated by fitting the absorbance vs time data to eq : 3 At=(A0−Ae)e^−kobst+Ae where A t , A 0 and A e are the absorbances recorded at time t, at the start of the reaction and upon reaching equilibrium, respectively. The fittings were performed with the computer program Micromath Scientist, version 2.0 (Salt Lake City, UT) by using a standard least-squares procedure.

Compound: O=C(O)CN(Cc1cccc(C(=O)O)n1)[C@@H]1CCCC[C@@H]1N(CC(=O)O)Cc1cccc(C(=O)O)n1 [CHXOCTAPA^4–, 6,6′-((((1R,2S)-cyclohexane-1,2-diyl)bis((carboxymethyl)azanediyl))bis(methylene))dipicolinic acid]
Σ log K i ^H (i = 1–5) [1]: 24.04
log K LaL ([2]; 0.15 M NaCl, ref footnote b): 17.82
log K LaL ^H ([2]; 0.15 M NaCl, ref footnote b): 2.00
log K LaL ^OH ([2]; 0.15 M NaCl, ref footnote b): 12.75
pLa ([3]; from literature constants): 16.6
log K 1 ^H ([4]; ref footnote c): 9.52
log K 2 ^H ([4]; ref footnote c): 5.51
log K 3 ^H ([4]; ref footnote c): 3.99
log K 4 ^H ([4]; ref footnote c): 3.43
log K 5 ^H ([4]; ref footnote c): 1.59
log K 6 ^H ([4]; ref footnote c): 0.61
log K 1 ^H ([4]; ref footnote d): 9.23
log K 2 ^H ([4]; ref footnote d): 5.40
log K 3 ^H ([4]; ref footnote d): 3.94
log K 4 ^H ([4]; ref footnote d): 2.24
log K 5 ^H ([4]; ref footnote d): 1.82
log K 6 ^H ([4]; ref footnote d): 1.91

Compound: O=C(O)CN1CCN(CC(=O)O)CCN(Cc2cccc(C(=O)O)n2)CCN(CC(=O)O)CC1 [DO3Apic^4–, 2,2′,2″-(10-((6-carboxypyridin-2-yl)methyl)-1,4,7,10-tetraazacyclododecane-1,4,7-triyl)triacetic acid]
log K LaL ([2]; 0.1 M KCl, ref footnote f): 21.17
log K LaL ^H ([2]; 0.1 M KCl, ref footnote f): 2.55
pLa ([3]; from literature constants): 16.6

Compound: O=C(O)CN(CC(=O)O)[C@@H]1CCCC[C@H]1N(CC(=O)O)CC(=O)O (relative stereo) [CDTA^4–, 2,2′,2″,2‴-((trans-cyclohexane-1,2-diyl)bis(azanetriyl))tetraacetic acid]
Σ log K i ^H (i = 1–5) [1]: 22.99
log K 1 ^H ([4]; ref footnote f): 9.36
log K 2 ^H ([4]; ref footnote f): 5.95
log K 3 ^H ([4]; ref footnote f): 3.62
log K 4 ^H ([4]; ref footnote f): 2.57
log K 5 ^H ([4]; ref footnote f): 1.49

Compound: O=C(O)CN(CCN(CC(=O)O)CC(=O)O)CC(=O)O [EDTA^4–, ethylenediamine-N,N,N′,N′-tetraacetic acid]
Σ log K i ^H (i = 1–5) [1]: 21.27
log K 1 ^H ([4]; ref footnote f): 9.17
log K 2 ^H ([4]; ref footnote f): 5.99
log K 3 ^H ([4]; ref footnote f): 2.73
log K 4 ^H ([4]; ref footnote f): 2.01
log K 5 ^H ([4]; ref footnote f): 1.38

More lines, main results first:

log K 1 ^H [5]: 10.79(1)
log K 2 ^H [5]: 4.95(1)
log K 3 ^H [5]: 4.06(1)
log K 4 ^H [5]: 3.46(1)
log K 5 ^H [5]: 2.94(1)
log K 6 ^H [5]: 0.67(6)
Σ log K i ^H (i = 1–5) [5]: 26.20
log K LaL ^La [3]: 2.85(1)
log K La2L ^OH [3]: 6.99(4)
log K La2LOH ^OH [3]: 9.40(4)
log K LaL [3]: 19.55(1)
pH at which dissociation of the La^3+ complex occurs (speciation diagrams) [3]: < 3.0
log K LaL ^OH [3]: 12.06(1)
amount of La^3+ not complexed at the beginning of the titration [3]: ~20%
pLa ([3]; from constants measured here): 17.1
K Cu [6]: 74.3 ± 30.2 M^–1
Compound: O=C(O)c1cccc(CN(Cc2cccc(C(=O)O)n2)[C@@H]2CCCC[C@H]2N(Cc2cccc(C(=O)O)n2)Cc2cccc(C(=O)O)n2)n1 [TPADAC^4–]
k 3 ^Cu [6]: (7.8 ± 2.2)×10^–3 M^–1 s^–1
k obs for [Cu^2+] = 1 nM [6]: 1.123 × 10^–8 s^–1
k obs for [Cu^2+] = 1 μM [6]: 7.381 × 10^–6 s^–1
k 6 ^Cu [6]: (1.5 ± 0.3)×10^7 M^–2 s^–1
k 2 [6]: 232.3 ± 36.8 M^–2 s^–1
k 1 [6]: 0.097 ± 0.036 M^–1 s^–1

pLa ([3]; from literature constants): 15.6
Compound: O=C(O)c1cccc(CN2CCOCCOCCN(Cc3cccc(C(=O)O)n3)CCOCCOCC2)n1 [MACROPA^2–, N,N’-bis[(6-carboxy-2-pyridil)methyl]-4,13-diaza-18-crown-6]
log K LaL ([2]; 0.1 M KCl, ref footnote d): 14.99
log K LaL ^H ([2]; 0.1 M KCl, ref footnote d): 2.28 ^d
log K LaL ([2]; 0.1 M NaCl, ref footnote e): 13.9

log K 1 ^H [5]: 7.87(1)
log K 2 ^H [5]: 5.14(1)
log K 3 ^H [5]: 3.89(1)
log K 4 ^H [5]: 3.28(1)
log K 5 ^H [5]: 2.55(1)
log K 6 ^H [5]: 0.89(8)
Σ log K i ^H (i = 1–5) [5]: 22.73
log K LaL ^La [3]: 2.31(13)
log K La2L ^OH [3]: 6.80(10)
log K La2LOH ^OH [3]: 9.57(10)
log K LaL [3]: 19.16(8)
pH at which dissociation of the La^3+ complex occurs (speciation diagrams) [3]: < 2.5
log K LaL ^OH [3]: 12.62(9)
amount of La^3+ not complexed at the beginning of the titration [3]: ~4%
pLa ([3]; from constants measured here): 19.5
K Cu [6]: 42.0 ± 4.5 M^–1
Compound: O=C(O)c1cccc(CN(CCN(Cc2cccc(C(=O)O)n2)Cc2cccc(C(=O)O)n2)Cc2cccc(C(=O)O)n2)n1 [TPAEN^4–, N,N,N′N′-tetrakis[(6-carboxypyridin-2-yl)methyl]-ethylenediamine]
k 3 ^Cu [6]: 0.74 ± 0.05 M^–1 s^–1
k obs for [Cu^2+] = 1 nM [6]: 4.34 × 10^–7 s^–1
k obs for [Cu^2+] = 1 μM [6]: 3.45 × 10^–4 s^–1
k 6 ^Cu [6]: (7.2 ± 0.5)×10^8 M^–2 s^–1
k 2 [6]: 110.93 ± 10.42 M^–2 s^–1
k 1 [6]: 2.24 ± 0.13 M^–1 s^–1
